{"source": "paper PMC2993181", "about": "(PLoS ONE, 2010)"}
{"test_system": "JEKO-1", "assay": "cells", "set-up": "species or system cell viability; MTT cell viability assay, absorbance 570/650 nm; IC50 by linear interpolation of concentration-response curve", "settings": "Homo sapiens, JeKo-1, 48 h; read-out: IC 50 values", "description": "Supplementary file pone.0015479.s006.doc: Table S2 A list of compounds tested in this study. JEKO-1 cells were treated with each of the listed compounds at concentrations ranging from 1.25 µM to […]. Cell viability was determined by the MTT assay and used to obtain concentration-response curve. IC50 was extracted by linear interpolation. Click here for additional data file. HeLa and 293T cells from ATCC were maintained according to the standard procedures. JEKO-1 cells were kept in RPMI, 10% FCS as previously described. NOXA and control stable knock-down JEKO-1 cells were described previously. PBMC from normal volunteers were obtained from the Department of Transfusion Medicine, NIH and PBMC from CLL patients were obtained under NIH protocol 97-C-0178 with informed consent. Transfection was done with lipofectamine 2000 (Invitrogen) for 293T accordingly to manufacture's instruction. Pulse chase and denaturing immunoprecipitation were carried out as described previously, [48]. Subcellular fractionation experiments were carried out as previously described. Briefly, HeLa cells were harvested and washed with phosphate-buffered saline. Cells were then treated on ice with the buffer PB (25 mM Hepes, pH 7.2, 115 mM potassium acetate, 5 mM sodium acetate, 2.5 mM magnesium acetate, 0.5 mM EGTA, and a protease inhibitor cocktail) that also contain 0.028% digitonin. Cells were centrifuged at 20,000×g for 10 min. The cytosolic supernatant fraction was removed and the nucleus and membrane pellet fraction was washed twice with the PB buffer. The pellet fraction was finally resuspended in the PB buffer. The fluorescence intensity in these fractions was measured by the Victor 3 plate reader using the Ex482 and Em523 filter set. […] After 4 h incubation, the sample absorbance at 570 nm and […] were measured using a Victor 3 plate reader (Perkin Elmer, Waltham, MA) and ratio of drug-treated samples vs. the untreated control was used to determine cell viability. […] Fluorescence labeled secondary antibodies (Invitrogen, Carlsbad, CA) were used for detection. […]", "units": {"IC50": "µM"}}
{"smiles": "O=C(CCCC[C@@H]1SC[C@@H]2NC(=O)N[C@@H]21)N/N=C/C=C/c1ccc([N+](=O)[O-])o1", "note": "[CBU-032]", "IC50": 25}
{"smiles": "CN(C)c1ccc(/C=C/C=N/NC(=O)CN2C(=O)N(c3ccc(Cl)cc3)C(N(O)C(=O)Nc3ccc(Cl)cc3)C2(C)C)cc1", "note": "(stereo not drawn) [CBU-059]", "IC50": "> 40"}
{"smiles": "CC1(C)C(N(O)C(=O)Nc2ccc(Cl)cc2)N(c2ccc(Cl)cc2)C(=O)N1CC(=O)N/N=C/C=C/c1ccc([N+](=O)[O-])o1", "note": "(stereo not drawn) [EerI, Eeyarestatin I]", "IC50": 3.5}
